ChEMBL document CHEMBL1145546, “Interactive effects of polymethoxy flavones from Citrus on cell growth inhibition in human neuroblastoma SH-SY5Y cells” (Bioorg Med Chem, 2008)
Calls of active or inactive are those of the source. The rule behind the calls is not given here.

Experiments:
[1] = test system: SH-SY5Y; assay: Growth inhibition of human SHSY5Y cells assessed as viable cells after 48 hrs by Trypan blue dye exclusion test; format: functional, cell-based
[2] = test system: SH-SY5Y; assay: Elevation of phosphorylated p38 level in hydrogen peroxide-treated human SHSY5Y cells at 30 uM after 3 hrs by Western blot analysis; format: functional, cell-based
[3] = test system: SH-SY5Y; assay: Elevation of phosphorylated ERK level in hydrogen peroxide-treated human SHSY5Y cells at 30 uM after 3 hrs by Western blot analysis; format: functional, cell-based
[4] = test system: SH-SY5Y; assay: Reduction of hydrogen peroxide-induced apoptotic cell death in human SHSY5Y cells after 12 hrs; format: functional; parameters: scale not given: the % may be the effect or the level left
[5] = test system: SH-SY5Y; assay: Reduction of hydrogen peroxide-induced apoptotic cell death in human SHSY5Y cells assessed as DNA ladder formation after 12 hrs; format: functional, cell-based
[6] = test system: SH-SY5Y; assay: Elevation of phosphorylated JNk level in hydrogen peroxide-treated human SHSY5Y cells at 30 uM after 3 hrs by Western blot analysis; format: functional, cell-based

Compound | IC50 [1] [µM] | Activity [2] | Activity [3] | Activity [4] [%] | Activity [5] | Activity [6]
COc1ccc(-c2cc(=O)c3c(O)c(OC)c(OC)c(OC)c3o2)cc1OC [5-DEMETHYLNOBILETIN] | 32.5 | – | – | – | – | –
COc1ccc(-c2cc(=O)c3c(OC)c(OC)c(OC)c(OC)c3o2)cc1OC [NOBILETIN] | – | Active | Active | 30 | Active | Active
COc1ccc(-c2cc(=O)c3c(OC)c(OC)c(OC)c(OC)c3o2)cc1 [TANGERETIN] | 41.2 | – | – | – | – | –
